Assay results from EP3134349B1 (priority 2014, dated 2015).
In brackets after ≈: the same amount, converted by molar mass.

Test: Water solubility by batch tests at room temperature (saturated solution, headspace GC)
Type: physicochemical
Protocol: In particular, in a vial fully filled with distilled water, a volume of pure compound (alone or mixed) in an amount sufficient for obtaining a well detectable precipitate and thus a saturated solution was injected. In order to quantify the solubilized fraction of the compound, the saturated solution was analyzed through gas chromatography of the headspace.

Question: With `ClC(Cl)C(Cl)Cl` [1,1,2,2-TeCA, 1,1,2,2-Tetrachloroethane] as the molecule, how does the Experimental solubility (pure compound in distilled water) read?
Answer: 2.99 ± 0.18 gL^-1

Question: And the solubility (thermodynamic from solid, mixture of the two compounds 50% V/V, distilled water, no unit printed in this row (other rows gL^-1), read-out: Mixture 50% V/V (experimental water solubility of the component))?
Answer: 1470 ± 90 µg/mL (≈ 8.76 mM)
